Data: PubChem BioAssay AID2060898 (Molecular Pharmacology Branch, DTP, NCI, 2025)

Test system: 616215-338-R-J1-PDC complex spheroid viability
Assay: Anticancer human tumor 616215-338-R-J1-PDC patient-derived colon adenocarcinoma cell line growth inhibition [RAS]
Details: for IC50: curve of first compound; for viability, T/C: stronger effect = lower value
Description: RAS pathway inhibitors in Combinations in Complex Spheroids
A high-throughput screen of multi-cell type tumor spheroids was designed to identify active combinations of RAS pathway inhibitors and targeted small molecules. Complex spheroids include a stromal component modeled by human endothelial cells (HUVEC) and fibroblasts modeled by human mesenchymal stem cells (MSCs). The concentration ranges selected for each drug and investigational agent were based upon clinically achievable concentrations if the clinical Cmax of the agent was known.
Compounds. The drugs and investigational agents: abemaciclib (NSC768073), cobimetinib (NSC768068), divarasib (GDC6063, NSC841802), docetaxel (NSC628503), GDC-1971 (RLY-1971, NSC841576), gemcitabine (NSC613327), inavolisib (NSC800729), ipatasertib (NSC767898), KB-0742 (NSC834161), MRTX-1133 (NSC836407), osimertinib (NSC779217), RMC-4630 (NSC839698), RMC-6236 (NSC851965), RMC-6291 (NSC852671), Ro-3306 (NSC812927), sapanisertib (NSC764658), SN-38 (NSC673596), staurosporine (NSC755774), SY5609 (NSC837396), and tovorafenib (DAY101, NSC766906), were obtained from the National Cancer Institute (NCI) Developmental Therapeutics Program Chemical Repository. The FDA-approved anticancer drug set is available from the NCI Developmental Therapeutics Program. […] The stock solutions were prepared in dimethyl sulfoxide (DMSO, Sigma-Aldrich, St. Louis, MO, cat. D2650) at 800-fold the tested concentration and stored at -70 degrees C prior to their use. All drugs and investigational agents were tested over a range starting from a high concentration at or near the clinical Cmax and decreasing in half-log increments. If the clinical Cmax for an agent had not been determined, the highest concentration tested was 10 microM.
Cell Culture. All cells were maintained in an incubator at 37 degrees C and 5% CO2 with 95% humidity. The PDC lines were cultured according to standard operating procedures established by the NCI PDMR. All PDCs were thawed and cultured in Matrigel-coated flasks prepared with a working solution of 1X Ham's F-12 nutrient mix, without supplementation (Invitrogen, Waltham, MA, cat. 11765054), 100 U/mL penicillin-streptomycin (Invitrogen, cat. 15140122), and 2.5% Matrigel (Corning Inc., Corning, NY, cat. 354248) for the first three passages. The 362531-283-R-J2-PDC and 782815-120-R-J1-PDC lines were cultured in 6C/Colon 1B media, which includes advanced DMEM/F-12 (Thermo Fisher Scientific, cat. 12634028), 10 mM HEPES (Thermo Fisher Scientific, cat. 15630080), 1X GlutaMAX supplement (Thermo Fisher Scientific, cat. 35050061), 0.1 mg/mL primocin (InvivoGen, San Diego, CA, cat. ant-pm-2), 10% defined fetal bovine serum, heat inactivated (HyClone Laboratories Inc., Logan, UT, cat. SH30070.03HI), 50% L-WRN conditioned media (ATCC, cat. CRL-3276), 1.25 mM N-Acetyl-L-cysteine (Sigma-Aldrich, cat. A9165), 10 mM nicotinamide (Sigma-Aldrich, cat. N0636), 1X B-27 supplement (Thermo Fisher Scientific, cat. 17504044), 1X N-2 supplement (Thermo Fisher Scientific, cat. 17502048), 50 ng/mL human EGF (Thermo Fisher Scientific, cat. PHG0311), and 10 microM Y-27632 dihydrochloride (Tocris Bioscience, cat. 1254). The K12877-001-R-J1-PDC line was cultured in 6I media, which includes all 6C/Colon 1B media plus 10 ng/mL human FGF-10 (PeproTech, cat. 100-26), 1 ng/mL human FGF-2 (PeproTech, cat. 100-18B), 1 µM prostaglandin E2 (Tocris Bioscience, cat. 2296), […] hydrocortisone (Sigma-Aldrich, cat. H4001), and […] bovine insulin (Sigma-Aldrich, cat. I6634). The K86415-001-R-J1-PDC line was cultured in 6D media, which includes all 6C/Colon 1B media components minus the L-WRN conditioned media. The 485176-168-R4-J1-PDC was cultured in PANC media, which includes all 6C/Colon 1B media plus 100 ng/mL human FGF-10 (PeproTech, cat. 100-26), 500 nM SB-431542 (Selleckchem, cat. S1067), and 10 nM gastrin (Tocris Bioscience, cat. 3006). […]
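Further: spheroids exposed to agents for seven days before viability readout.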
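Wherever viability, T/C is given: 100% = DMSO vehicle control viability.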

Question: What does the source list for CC(C)NCC(C(=O)N1CCN(c2ncnc3c2C(C)CC3O)CC1)c1ccc(Cl)cc1 (configuration not stated) + C#Cc1c(F)ccc2cc(O)cc(-c3ncc4c(N5CC6CCC(C5)N6)nc(OCC56CCCN5CC(F)C6)nc4c3F)c12?
Answer: IC50 (second compound 0.0316 µM): 8.8 µM; IC50 (second compound 0.1 µM): 8.47 µM; IC50 (second compound 0.316 µM): 7.91 µM; IC50 (second compound 1 µM): 7.71 µM; IC50 (second compound 3.16 µM): 4.6 µM; IC50 (second compound 10 µM): 2.13 µM; viability, T/C (second compound 0.0316 µM, first compound 0.0316 µM): 107%; viability, T/C (second compound 0.0316 µM, first compound 0.1 µM): 103%; viability, T/C (second compound 0.0316 µM, first compound 0.316 µM): 108%; viability, T/C (second compound 0.0316 µM, first compound 1 µM): 111%; viability, T/C (second compound 0.0316 µM, first compound 3.16 µM): 99.5%; viability, T/C (second compound 0.0316 µM, first compound 10 µM): 43.8%; viability, T/C (second compound 0.1 µM, first compound 0.0316 µM): 104%; viability, T/C (second compound 0.1 µM, first compound 0.1 µM): 109%; viability, T/C (second compound 0.1 µM, first compound 0.316 µM): 105%; viability, T/C (second compound 0.1 µM, first compound 1 µM): 111%; viability, T/C (second compound 0.1 µM, first compound 3.16 µM): 91.8%; viability, T/C (second compound 0.1 µM, first compound 10 µM): 43%; viability, T/C (second compound 0.316 µM, first compound 0.0316 µM): 113%; viability, T/C (second compound 0.316 µM, first compound 0.1 µM): 110%; viability, T/C (second compound 0.316 µM, first compound 0.316 µM): 110%; viability, T/C (second compound 0.316 µM, first compound 1 µM): 108%; viability, T/C (second compound 0.316 µM, first compound 3.16 µM): 81.5%; viability, T/C (second compound 0.316 µM, first compound 10 µM): 42%; viability, T/C (second compound 1 µM, first compound 0.0316 µM): 114%; viability, T/C (second compound 1 µM, first compound 0.1 µM): 121%; viability, T/C (second compound 1 µM, first compound 0.316 µM): 115%; viability, T/C (second compound 1 µM, first compound 1 µM): 103%; viability, T/C (second compound 1 µM, first compound 3.16 µM): 75.7%; viability, T/C (second compound 1 µM, first compound 10 µM): 42.5%; viability, T/C (second compound 3.16 µM, first compound 0.0316 µM): 107%; viability, T/C (second compound 3.16 µM, first compound 0.1 µM): 101%; viability, T/C (second compound 3.16 µM, first compound 0.316 µM): 94.5%; viability, T/C (second compound 3.16 µM, first compound 1 µM): 97.2%; viability, T/C (second compound 3.16 µM, first compound 3.16 µM): 60.3%; viability, T/C (second compound 3.16 µM, first compound 10 µM): 28.4%; viability, T/C (second compound 10 µM, first compound 0.0316 µM): 81.2%; viability, T/C (second compound 10 µM, first compound 0.1 µM): 82.2%; viability, T/C (second compound 10 µM, first compound 0.316 µM): 89.2%; viability, T/C (second compound 10 µM, first compound 1 µM): 74.1%; viability, T/C (second compound 10 µM, first compound 3.16 µM): 37.2%; viability, T/C (second compound 10 µM, first compound 10 µM): 18.5%
